Assay results reported in ChEMBL document CHEMBL1201862, “PubChem BioAssay data set” (2004).
Blank lines part the entries; values can stand above or below the molecule they belong to. Calls of active or inactive are those of the source.

Key:
INS1 = experiment: beta cell apoptosis inhibitors, cytokine rescue, dose response, luminescence, retest (AID 449756); format: functional, cell-based; conditions: Rattus norvegicus;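 note: cell death triggered by IL-1 beta plus TNF-alpha plus IFN-gamma mixture; protective hits raise ATP signal compared with cytokine alone wells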
[1] = target: T1, Sentrin-specific protease 8 (Homo sapiens, UniProt Q96LD8); experiment: SENP8 protease inhibitors, SAR follow-up, biochemical, luminescence (AID 504501); format: functional
T1 sequence (Q96LD8 whole entry): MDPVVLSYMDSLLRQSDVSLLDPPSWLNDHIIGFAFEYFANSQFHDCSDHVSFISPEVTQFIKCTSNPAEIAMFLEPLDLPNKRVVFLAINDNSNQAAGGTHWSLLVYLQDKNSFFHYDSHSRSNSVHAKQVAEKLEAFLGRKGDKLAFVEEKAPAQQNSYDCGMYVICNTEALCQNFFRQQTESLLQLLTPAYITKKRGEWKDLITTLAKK

Caspase-3 = target: T2, Caspase-3 (Homo sapiens, UniProt P42574); experiment: SAR Analysis of small molecule inhibitors of Sentrin-specific proteases (SENPs) using a Caspase-3 Selectivity assay. [Related pubchem assays (depositor defined):AID2540, AID2599, AID434973, AID489001]; format: functional
T2 sequence (P42574 whole entry): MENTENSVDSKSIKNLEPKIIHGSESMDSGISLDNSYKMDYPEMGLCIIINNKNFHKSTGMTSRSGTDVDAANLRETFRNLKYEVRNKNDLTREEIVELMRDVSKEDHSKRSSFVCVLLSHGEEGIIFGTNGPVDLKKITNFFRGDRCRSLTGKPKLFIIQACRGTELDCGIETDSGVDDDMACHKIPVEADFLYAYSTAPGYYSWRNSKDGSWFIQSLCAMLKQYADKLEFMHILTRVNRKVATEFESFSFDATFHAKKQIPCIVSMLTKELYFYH

SUMO-activating enzyme = SUMO-activating enzyme (Homo sapiens, UniProt Q9UBT2); experiment: inhibitors of in vitro SUMOylation cascade, primary screen, biochemical, HTRF, uHTS (AID 2006); format: protein-complex assay
Sequence of SUMO-activating enzyme (Q9UBE0 whole entry): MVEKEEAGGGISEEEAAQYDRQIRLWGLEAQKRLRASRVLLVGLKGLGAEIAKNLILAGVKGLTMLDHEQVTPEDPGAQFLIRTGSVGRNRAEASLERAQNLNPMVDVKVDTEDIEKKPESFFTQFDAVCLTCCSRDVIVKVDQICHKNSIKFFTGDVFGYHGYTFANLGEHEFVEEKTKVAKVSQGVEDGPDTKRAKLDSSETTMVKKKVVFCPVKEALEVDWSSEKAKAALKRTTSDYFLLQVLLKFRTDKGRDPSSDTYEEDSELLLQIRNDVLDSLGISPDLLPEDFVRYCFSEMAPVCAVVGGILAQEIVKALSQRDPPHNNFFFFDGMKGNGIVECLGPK
Sequence of SUMO-activating enzyme (Q9UBT2 whole entry): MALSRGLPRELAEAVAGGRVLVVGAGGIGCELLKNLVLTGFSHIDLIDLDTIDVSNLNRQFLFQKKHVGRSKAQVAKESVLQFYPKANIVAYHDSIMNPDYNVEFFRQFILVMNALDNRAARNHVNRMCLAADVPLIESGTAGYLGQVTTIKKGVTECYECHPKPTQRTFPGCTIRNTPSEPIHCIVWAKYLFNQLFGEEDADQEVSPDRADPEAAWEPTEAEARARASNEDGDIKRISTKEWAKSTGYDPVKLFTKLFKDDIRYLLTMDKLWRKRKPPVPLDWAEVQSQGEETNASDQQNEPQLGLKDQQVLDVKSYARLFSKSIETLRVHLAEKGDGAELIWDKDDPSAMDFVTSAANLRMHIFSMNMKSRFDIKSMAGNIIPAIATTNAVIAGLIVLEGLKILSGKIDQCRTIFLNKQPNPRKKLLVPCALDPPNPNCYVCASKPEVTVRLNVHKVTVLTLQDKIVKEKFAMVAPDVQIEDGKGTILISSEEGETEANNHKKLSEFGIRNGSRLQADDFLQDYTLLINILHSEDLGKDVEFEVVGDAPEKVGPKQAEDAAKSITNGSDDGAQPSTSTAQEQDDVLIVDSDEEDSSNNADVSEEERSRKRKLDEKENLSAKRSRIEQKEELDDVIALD

[2] = target: Dual specificity protein kinase CLK2 (Homo sapiens, UniProt P49760); format: functional
Sequence of Dual specificity protein kinase CLK2 (P49760 whole entry): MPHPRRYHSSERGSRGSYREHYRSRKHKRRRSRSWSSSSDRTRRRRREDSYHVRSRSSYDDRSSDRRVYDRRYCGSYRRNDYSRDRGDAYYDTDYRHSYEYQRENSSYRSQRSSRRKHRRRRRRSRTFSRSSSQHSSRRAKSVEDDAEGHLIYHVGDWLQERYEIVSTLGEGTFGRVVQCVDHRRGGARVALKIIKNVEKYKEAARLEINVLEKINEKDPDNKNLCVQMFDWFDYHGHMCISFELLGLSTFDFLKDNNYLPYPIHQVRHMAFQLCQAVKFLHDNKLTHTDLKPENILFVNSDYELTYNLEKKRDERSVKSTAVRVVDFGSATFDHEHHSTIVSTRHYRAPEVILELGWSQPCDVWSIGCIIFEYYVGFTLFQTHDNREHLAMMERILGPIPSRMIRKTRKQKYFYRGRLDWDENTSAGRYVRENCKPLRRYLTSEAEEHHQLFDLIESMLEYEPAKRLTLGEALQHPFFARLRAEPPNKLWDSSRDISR

[3] = target: Tyrosine-protein kinase JAK2 (Homo sapiens, UniProt O60674); format: functional;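 note: JAK2 tested as one member of a kinase panel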
[4] = target: Tyrosine-protein kinase Lck (Homo sapiens, UniProt P06239); format: functional;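 note: lck was assayed as one member of a kinase panel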
Sequence of Tyrosine-protein kinase Lck (P06239 whole entry): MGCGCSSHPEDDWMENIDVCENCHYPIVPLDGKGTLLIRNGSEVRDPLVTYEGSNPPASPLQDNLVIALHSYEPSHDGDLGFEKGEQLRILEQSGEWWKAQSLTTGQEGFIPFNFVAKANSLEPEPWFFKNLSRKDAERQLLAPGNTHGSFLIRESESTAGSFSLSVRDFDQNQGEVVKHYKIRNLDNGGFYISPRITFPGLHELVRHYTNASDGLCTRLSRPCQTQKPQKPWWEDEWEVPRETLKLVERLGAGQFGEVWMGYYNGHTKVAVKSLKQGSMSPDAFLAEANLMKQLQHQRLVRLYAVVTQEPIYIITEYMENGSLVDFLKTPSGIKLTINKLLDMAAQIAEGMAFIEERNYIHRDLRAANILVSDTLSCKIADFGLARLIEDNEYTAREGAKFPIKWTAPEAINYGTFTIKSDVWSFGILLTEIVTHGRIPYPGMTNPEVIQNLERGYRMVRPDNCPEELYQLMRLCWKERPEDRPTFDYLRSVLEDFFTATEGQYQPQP

[5] = target: Tyrosine-protein kinase BTK (Homo sapiens, UniProt Q06187); format: functional
Sequence of Tyrosine-protein kinase BTK (Q06187 whole entry, canonical isoform): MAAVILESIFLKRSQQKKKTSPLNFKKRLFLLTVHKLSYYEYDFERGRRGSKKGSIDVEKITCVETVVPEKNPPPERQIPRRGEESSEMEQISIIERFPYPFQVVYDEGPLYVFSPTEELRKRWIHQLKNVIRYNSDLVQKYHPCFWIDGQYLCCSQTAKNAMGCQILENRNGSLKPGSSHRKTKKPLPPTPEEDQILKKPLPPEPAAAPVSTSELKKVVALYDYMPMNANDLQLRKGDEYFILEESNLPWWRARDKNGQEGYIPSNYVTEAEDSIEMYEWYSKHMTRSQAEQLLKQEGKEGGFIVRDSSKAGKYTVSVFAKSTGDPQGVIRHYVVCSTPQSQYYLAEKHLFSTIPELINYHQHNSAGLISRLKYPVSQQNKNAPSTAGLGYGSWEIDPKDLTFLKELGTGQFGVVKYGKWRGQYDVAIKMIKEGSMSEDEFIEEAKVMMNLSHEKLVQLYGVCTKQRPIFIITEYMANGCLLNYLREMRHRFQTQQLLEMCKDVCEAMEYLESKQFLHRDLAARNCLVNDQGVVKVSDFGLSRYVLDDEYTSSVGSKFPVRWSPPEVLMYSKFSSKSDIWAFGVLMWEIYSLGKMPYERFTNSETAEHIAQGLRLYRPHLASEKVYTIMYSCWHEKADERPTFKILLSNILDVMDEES

[6] = target: Casein kinase I isoform alpha (Homo sapiens, UniProt P48729); format: functional
Sequence of Casein kinase I isoform alpha (P48729 whole entry, canonical isoform): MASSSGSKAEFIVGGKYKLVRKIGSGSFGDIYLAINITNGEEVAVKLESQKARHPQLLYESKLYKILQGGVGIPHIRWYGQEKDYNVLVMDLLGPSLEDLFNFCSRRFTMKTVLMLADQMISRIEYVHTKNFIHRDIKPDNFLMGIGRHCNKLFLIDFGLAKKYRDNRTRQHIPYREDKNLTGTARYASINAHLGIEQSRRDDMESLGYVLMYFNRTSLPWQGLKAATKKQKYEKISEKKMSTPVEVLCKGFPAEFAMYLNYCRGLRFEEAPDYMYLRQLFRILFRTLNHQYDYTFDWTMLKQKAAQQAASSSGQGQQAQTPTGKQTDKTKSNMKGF

[7] = target: Tyrosine-protein kinase JAK3 (Homo sapiens, UniProt P52333); format: functional
Sequence of Tyrosine-protein kinase JAK3 (P52333 whole entry): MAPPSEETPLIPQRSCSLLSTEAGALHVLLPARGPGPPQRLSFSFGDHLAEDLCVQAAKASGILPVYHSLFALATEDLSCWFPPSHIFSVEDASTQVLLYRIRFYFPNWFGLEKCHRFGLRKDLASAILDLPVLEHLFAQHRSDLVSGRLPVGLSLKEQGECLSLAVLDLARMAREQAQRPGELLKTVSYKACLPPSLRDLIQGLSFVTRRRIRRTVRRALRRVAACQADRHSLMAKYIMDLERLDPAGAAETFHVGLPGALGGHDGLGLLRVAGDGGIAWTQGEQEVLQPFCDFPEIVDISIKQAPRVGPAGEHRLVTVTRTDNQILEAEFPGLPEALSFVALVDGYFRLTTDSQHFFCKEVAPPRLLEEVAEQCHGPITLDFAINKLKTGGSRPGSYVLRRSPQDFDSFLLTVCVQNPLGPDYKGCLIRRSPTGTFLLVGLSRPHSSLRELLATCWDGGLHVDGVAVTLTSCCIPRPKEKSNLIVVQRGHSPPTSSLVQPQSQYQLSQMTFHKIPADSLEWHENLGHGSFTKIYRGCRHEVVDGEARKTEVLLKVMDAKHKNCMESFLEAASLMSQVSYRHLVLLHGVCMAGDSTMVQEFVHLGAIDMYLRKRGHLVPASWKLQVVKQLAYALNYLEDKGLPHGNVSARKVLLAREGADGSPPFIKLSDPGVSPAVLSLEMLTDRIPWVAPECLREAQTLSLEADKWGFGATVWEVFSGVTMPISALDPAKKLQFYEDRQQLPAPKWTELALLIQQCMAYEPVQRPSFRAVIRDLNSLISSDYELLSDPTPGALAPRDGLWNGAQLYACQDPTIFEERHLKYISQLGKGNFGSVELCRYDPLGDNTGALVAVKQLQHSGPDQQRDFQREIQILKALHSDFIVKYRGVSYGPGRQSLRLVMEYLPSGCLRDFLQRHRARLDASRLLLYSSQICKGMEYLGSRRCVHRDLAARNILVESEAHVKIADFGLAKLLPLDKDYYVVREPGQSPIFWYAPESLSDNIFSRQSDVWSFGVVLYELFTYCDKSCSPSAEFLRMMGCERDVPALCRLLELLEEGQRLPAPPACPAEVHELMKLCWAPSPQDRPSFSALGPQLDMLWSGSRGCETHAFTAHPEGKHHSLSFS

[8] = target: Mitogen-activated protein kinase 9 (Homo sapiens, UniProt P45984); format: functional;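 note: value from a kinome panel profiling assay, MAPK9 panel entry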
[9] = target: T3, Serine/threonine-protein kinase TAO1 (Homo sapiens, UniProt Q7L7X3); format: functional
T3 sequence (Q7L7X3 whole entry): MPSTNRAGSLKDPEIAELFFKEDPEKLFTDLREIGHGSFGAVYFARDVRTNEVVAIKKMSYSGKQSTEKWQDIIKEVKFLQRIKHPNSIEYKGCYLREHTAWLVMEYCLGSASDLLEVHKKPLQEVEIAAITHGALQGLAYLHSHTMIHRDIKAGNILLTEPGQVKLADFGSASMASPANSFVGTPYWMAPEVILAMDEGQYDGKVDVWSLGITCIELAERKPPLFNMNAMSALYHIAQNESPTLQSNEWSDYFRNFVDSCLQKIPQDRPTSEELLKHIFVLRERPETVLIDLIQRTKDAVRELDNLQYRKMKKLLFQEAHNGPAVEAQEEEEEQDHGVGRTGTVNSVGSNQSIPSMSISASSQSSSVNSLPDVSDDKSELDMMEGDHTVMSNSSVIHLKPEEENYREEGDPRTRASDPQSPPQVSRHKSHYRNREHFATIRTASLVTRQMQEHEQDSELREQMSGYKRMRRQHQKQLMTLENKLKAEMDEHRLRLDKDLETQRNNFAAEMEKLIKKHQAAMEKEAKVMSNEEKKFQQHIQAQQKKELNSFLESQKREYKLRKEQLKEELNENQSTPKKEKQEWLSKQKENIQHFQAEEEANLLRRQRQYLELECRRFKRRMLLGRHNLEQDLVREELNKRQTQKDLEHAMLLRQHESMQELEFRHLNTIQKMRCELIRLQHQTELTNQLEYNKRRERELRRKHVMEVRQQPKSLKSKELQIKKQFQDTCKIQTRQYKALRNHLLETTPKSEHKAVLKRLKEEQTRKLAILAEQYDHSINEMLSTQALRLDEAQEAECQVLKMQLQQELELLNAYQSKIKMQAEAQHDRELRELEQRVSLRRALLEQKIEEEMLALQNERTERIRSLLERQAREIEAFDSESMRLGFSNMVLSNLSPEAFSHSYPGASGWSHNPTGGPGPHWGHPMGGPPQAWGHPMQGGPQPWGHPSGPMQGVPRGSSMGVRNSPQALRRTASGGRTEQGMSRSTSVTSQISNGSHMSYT

[10] = target: High affinity nerve growth factor receptor (Homo sapiens, UniProt P04629); format: functional;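 note: NTRK1 tested as one member of a kinome-wide profiling panel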
[11] = target: Tyrosine-protein kinase Fyn (Homo sapiens, UniProt P06241); format: functional
[12] = target: Calcium/calmodulin-dependent protein kinase type II subunit alpha (Homo sapiens, UniProt Q9UQM7); experiment: Navigating the Kinome. Panel member name: CAMK2A; format: functional
Sequence of Calcium/calmodulin-dependent protein kinase type II subunit alpha (Q9UQM7 whole entry): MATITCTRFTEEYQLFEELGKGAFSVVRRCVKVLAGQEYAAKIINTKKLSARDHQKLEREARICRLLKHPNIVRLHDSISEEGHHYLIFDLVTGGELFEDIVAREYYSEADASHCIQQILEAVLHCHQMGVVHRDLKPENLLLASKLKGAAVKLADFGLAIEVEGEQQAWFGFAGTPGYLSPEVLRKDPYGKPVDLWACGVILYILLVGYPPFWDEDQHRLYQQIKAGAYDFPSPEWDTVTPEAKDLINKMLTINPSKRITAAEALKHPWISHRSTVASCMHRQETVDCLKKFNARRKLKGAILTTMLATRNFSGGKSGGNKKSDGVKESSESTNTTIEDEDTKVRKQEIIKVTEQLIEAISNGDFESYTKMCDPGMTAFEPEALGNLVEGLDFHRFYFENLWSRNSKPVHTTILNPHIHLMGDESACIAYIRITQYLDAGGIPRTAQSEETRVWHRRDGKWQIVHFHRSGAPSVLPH

[13] = target: Mitogen-activated protein kinase 14 (Homo sapiens, UniProt Q16539); format: functional;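 note: part of a kinome-wide panel, MAPK14 entry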
Sequence of Mitogen-activated protein kinase 14 (Q16539 whole entry): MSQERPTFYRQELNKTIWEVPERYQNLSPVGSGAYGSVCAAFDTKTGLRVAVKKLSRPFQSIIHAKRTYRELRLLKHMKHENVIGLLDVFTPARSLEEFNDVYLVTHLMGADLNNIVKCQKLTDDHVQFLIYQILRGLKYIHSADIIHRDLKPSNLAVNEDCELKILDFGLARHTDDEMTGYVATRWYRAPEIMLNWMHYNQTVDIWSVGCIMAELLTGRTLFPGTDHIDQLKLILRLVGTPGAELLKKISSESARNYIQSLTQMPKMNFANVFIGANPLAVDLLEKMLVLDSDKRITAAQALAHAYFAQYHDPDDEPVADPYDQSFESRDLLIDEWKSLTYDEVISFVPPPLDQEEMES

[14] = target: Platelet-derived growth factor receptor beta (Homo sapiens, UniProt P09619); format: functional;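 note: value comes from a kinome panel, with PDGFRB tested as one panel member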

Compound: CCN(CC)CCOc1ccc2c(c1)C(=NNC(=O)c1ccccn1)c1cc(OCCN(CC)CC)ccc1-2
AC50 (INS1): 2.97 µM (active)

Compound: O=C(NC1=C(Nc2ccc(F)cc2)C(=O)c2ccccc2C1=O)c1ccc(Cl)cc1
AC50 (INS1): 5.26 µM (active)

IC50 (Caspase-3): > 99 µM (inactive)
Compound: COc1cc2cc(NC(C)=O)cc(NCc3ccccc3)c2cc1OC
IC50 [1]: > 99 µM (inactive)

Compound: Oc1nc(Nc2ccc(F)cc2)cc2ccccc12
IC50 (SUMO-activating enzyme): 3.38 µM (active)

IC50 (SUMO-activating enzyme): 15.5 µM (active)
IC50 (Caspase-3): 79.3 µM (active)
Compound: CN(C)c1cc(N/N=C\c2ccccc2)nc(N(C)C)n1
IC50 [1]: 31.7 µM (active)

Ki [2]: > 3.98 µM (inactive)
Ki [3]: 0.00501 µM (active)
Ki [4]: 1 µM (active)
Ki [5]: > 6.31 µM (inactive)
Ki [6]: > 3.98 µM (inactive)
Ki [7]: 0.02 µM (active)
Ki [8]: > 3.98 µM (inactive)
Ki [9]: 0.398 µM (active)
Ki [10]: 2 µM (active)
Ki [11]: > 6.31 µM (inactive)
Ki [12]: 2.51 µM (active)
Ki [13]: 2.51 µM (active)
Compound: O=C1Nc2cc(-c3ccc(O)cc3)ccc2C1=Cc1ccc[nH]1

Ki [2]: 0.000794 µM (active)
Ki [3]: 0.0631 µM (active)
Ki [4]: 0.251 µM (active)
Ki [5]: 3.98 µM (active)
Ki [6]: 2 µM (active)
Ki [7]: 0.02 µM (active)
Ki [8]: 1.26 µM (active)
Ki [9]: 0.251 µM (active)
Ki [10]: 0.0631 µM (active)
Ki [14]: 0.00316 µM (active)
Ki [11]: 0.398 µM (active)
Ki [12]: 0.0631 µM (active)
Ki [13]: 0.631 µM (active)
Compound: NC(COc1cncc(-c2ccc3c(c2)C(=Cc2ccc[nH]2)C(=O)N3)c1)Cc1ccccc1 (centres undefined)

Ki [14]: 50.1 µM (active)
Compound: O=C1Cc2cc(-c3ccccc3)cnc2N1
